{"source": "patent US20210246140A1", "about": "“MODULATORS OF METABOTROPIC GLUTAMATE RECEPTOR 2” (The General Hospital Corporation, priority 2020, published 2021)", "key": {"Determination of Log P": {"test": "Determination of Log P", "type": "physicochemical", "conditions": "experimental lipophilicity", "description": "Determination of Log P The Log P was determined using a reversed-phase HPLC method. First, seven reference compounds were examined to obtain the linear regression of the log P against the log of capacity factors by the expression: log Pow=a+b*log k. The Log P of these reference compounds was already been determined. The capacity factor k was calculated by the expression: k=(tR−t0)/t0. The retention time tR of test compound was determined on the HPLC (Agilent 1260 infinity II LC System, XTerra™ MS Cis 5μ 2.1×250 mm, methanol/water=75/25, 0.25 mL/min). The dead-time to was measured by using thiourea. The linear regression equation of the Log P against the log of capacity factors was generated in Excel: log Pow=3.049+2.429*log k, where R^2 was 0.9964. The retention time of compound 1, 2, and 7 was also determined on the HPLC under the same condition and each test was repeated three times (FIG. 5).\nThe experimental lipophilicity was measured by using liquid-liquid partition between n-octanol and water (“shake-flask method”) [see ref. 54]. […] The plasma protein binding comprises compounds' binding to albumin, α1-acid glycoprotein and lipoproteins once delivered to the bloodstream. This property was evaluated for compounds 1 and 2 by equilibrium dialysis [see ref. 56], where two chambers were separated by a dialysis membrane (MWCO 8 kD). The plasma protein bindings of 1 and 2 are 87.2% and 88.7%, respectively (see FIGS. 20 and 6). Therefore, the high plasma free fraction of compounds 1 and 2 (>10%) would allow enough free drug concentration in blood stream to reach the brain targets."}, "mGluR2": {"target": "T1, mGluR2 (Homo sapiens, UniProt Q14416)", "T1 construct": "expressed in transfected cells", "T1 sequence (Q14416 19-872)": "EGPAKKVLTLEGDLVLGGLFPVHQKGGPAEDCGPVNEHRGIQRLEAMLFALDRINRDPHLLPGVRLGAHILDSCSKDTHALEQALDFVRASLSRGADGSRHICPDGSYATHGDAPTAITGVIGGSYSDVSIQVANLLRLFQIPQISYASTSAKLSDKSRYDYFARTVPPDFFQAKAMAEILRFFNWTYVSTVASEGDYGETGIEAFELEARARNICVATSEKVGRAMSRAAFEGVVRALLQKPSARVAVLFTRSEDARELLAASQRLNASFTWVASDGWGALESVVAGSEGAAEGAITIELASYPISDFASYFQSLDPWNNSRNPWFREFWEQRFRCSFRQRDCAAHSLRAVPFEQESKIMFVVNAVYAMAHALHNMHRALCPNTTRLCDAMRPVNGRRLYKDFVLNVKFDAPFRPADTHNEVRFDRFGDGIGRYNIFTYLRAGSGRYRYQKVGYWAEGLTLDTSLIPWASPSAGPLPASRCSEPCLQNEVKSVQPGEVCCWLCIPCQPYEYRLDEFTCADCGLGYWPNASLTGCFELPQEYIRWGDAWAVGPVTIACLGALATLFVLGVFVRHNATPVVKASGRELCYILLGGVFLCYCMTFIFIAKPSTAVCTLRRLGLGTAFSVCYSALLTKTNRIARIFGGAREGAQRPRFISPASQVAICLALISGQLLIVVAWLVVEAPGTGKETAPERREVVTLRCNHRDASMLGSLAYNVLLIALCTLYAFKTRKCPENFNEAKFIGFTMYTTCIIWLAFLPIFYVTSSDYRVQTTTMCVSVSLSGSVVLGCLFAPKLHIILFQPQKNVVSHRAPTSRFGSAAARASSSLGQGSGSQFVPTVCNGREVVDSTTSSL", "conditions": "calcium flux, Gα15 or Gα16 forced coupling; read-out: previously reported mGluR2 EC50; cited from earlier work"}, "[1]": {"test": "Plasma stability in rat serum", "type": "in vitro ADME", "conditions": "37° C., diltiazem as positive control", "description": "Compound stability in rat serum was examined using a published method. [See ref. 57] Rat serum (100 μL, Abeam, Inc, No. ab7488) and test compound or control compound (2.5 μL, 1 mM in DMSO) was added to the individual tube. The tube was vortexed and incubated at 37° C. During the incubation, aliquots of 50 μL samples were quenched with ice-cold acetonitrile at 0, 15, 30, 60, and 120 min time points, respectively. After mixing, the quenched samples were centrifuged, and the supernatant was withdrawn for analysis by HPLC (Agilent 1260 infinity II LC System, XTerra™ MS C18, 5μ, 2.1×250 mm, 20 mM ammonium formate (A)/acetonitrile (B), 0.25 mL/min, gradient of 5% to 100% B). The samples were assayed at least three times. Compound 1-OH was used as internal standard while diltiazem was used as a positive control. The percentage remaining was calculated by (peak area at the specific time point)/(peak area at 0 min)×100% (FIG. 7).\n(§1) The in vitro plasma and liver microsomal stability of 1 and 2 were studied by incubating the test compounds in rat serum and rat liver microsomes as well as NADPH cofactor, respectively, using previously published methods [see refs. 57, 58]. […] The solution stability of 1 was evaluated with buffer solutions at pH 5.0, 7.4 and 9.4, respectively (FIGS. 10 and 20) [see refs. 61]."}, "[2]": {"test": "PAMPA-BBB (parallel artificial membrane permeation assay)", "conditions": "pH 7.4, 18 h"}, "[3]": {"test": "Microsomal stability in rat liver microsomes", "type": "in vitro ADME", "description": "Compound stability in rat liver microsomal was tested using a published method. [see refs. 57, 58] In a vial 1.5 μL of test compound (1 mM in DMSO stock solution) was mixed with 432 μL of PBS (50 mM, pH 7.4). The mixture was kept at 37° C. for 10 min before adding 13 μL of Sprague-Dawley rat liver microsomes (Sigma-Aldrich, No. M9066). The vial was vortexed and shaken at 37° C. for 5 min, followed by addition of 50 μL of NADPH (10 mM in PBS stock solution) to start the reaction. The mixture was incubated at 37° C. for 0, 5, 15, 30, 45 min, respectively, and quenched by addition of 250 μL of ice-cold acetonitrile and 3 μL of the internal standard (0.5 mM in DMSO). The quenched solutions were centrifuged at 10,000 g for 15 min. The supernatant was collected and quantitated by RP-HPLC (Phenomenex Luna® column 5 μC18, 100 Å, 250×4.6 mm; 0.7 mL/min, 15 min, Acetonitrile/water/0.1% FA). The procedure was repeated three times for each compound. Compound 1-OH was used as internal standard and compound ML128 served as positive control. The percentage of remaining intact test-compound was calculated by (peak area at the specific time point)/(peak area at 0 min)×100%. Each procedure was repeated three times (FIGS. 8 and 9). For FIG. 8, the natural logarithm (In) of peak area ratio (test compound peak area/internal standard peak area) was plotted against time and the gradient of the line was determined. Subsequently, the half-life (t1/2) min was calculated as 0.693/k, where the elimination rate constant (k) equals to negative gradient. V (μL/mg) was obtained as a ratio of volume of incubation (μL)/protein in the incubation (mg). Finally, the intrinsic clearance (CLint) (μL/min/mg protein) was calculated as V×0.693/t1/2.\nas §1"}, "[4]": {"test": "Solution stability in aqueous buffers at different pH", "type": "physicochemical", "conditions": "buffer solutions at pH 5.0, 7.4 and 9.4, 37° C., 2 h", "description": "The solution stability of 3 was examined in the aqueous buffers at different pH values. 50 μL of compound in DMSO (0.25 mM) was added to the sodium acetate-KCl—HCl buffer (950 μL, 20 mM, pH 5.0), phosphate buffer (950 μL, 20 mM, pH 7.4), and boric acid-KCl—NaOH buffer (950 μL, 20 mM, pH 9.4), respectively. The mixtures were incubated for 2 h at 37° C. and analyzed by HPLC (Phenomenex Luna® column, 5 μm C18, 100 Å, 250×4.6 mm, eluents: CH3CN/H2O in 0.1% formic acid).\nas §1, with “58]. Diltiazem and ML128 (a mGluR4 PAM) [see refs. 59, 60] were used as co-assay QC controls for plasma and microsomal stability assays, respectively, to ensure that the assays were operating properly, and that the activity of the plasma and microsomes were consistent with established criteria.” for “58].”"}}, "data": [{"smiles": "COc1cc(C(F)(F)F)ccc1C1CCN(Cc2nc3ncccc3n2C)CC1", "note": "[Compound 1]", "values": [{"measurement": "Log P", "setting": "Determination of Log P", "result": 3.65}, {"measurement": "EC50", "setting": "mGluR2", "result": 13, "unit": "nM"}, {"measurement": "stability in rat plasma", "setting": "[1]", "result": "much more stable than diltiazem"}, {"measurement": "effective permeability Pe", "setting": "[2]", "result": 9.2, "unit": "×10⁻⁶ cm/s"}, {"measurement": "microsomal CLint at 3 µM", "setting": "[3]; Sprague-Dawley, pH 7.4, rat liver microsomes, read-out: intrinsic clearance CLint", "result": 17.9, "unit": "µL/min/mg"}, {"measurement": "microsomal stability", "setting": "[3]; rat liver microsomes with NADPH, ML128 as positive control", "result": "reasonable microsomal stability"}, {"measurement": "solution stability", "setting": "[4]", "result": "relatively stable"}]}]}
